Assay results: paper PMC11788587, “Validating Low‐Dose Iohexol as a Marker for Glomerular Filtration Rate by In Vitro and In Vivo Studies” (Clinical and Translational Science, 2025)

Biological target: T1, hOATP1B3 (Homo sapiens, UniProt Q9NPD5)
T1 construct: expressed in transfected cells; host or cells: 293 cells (control: empty vector)
T1 sequence (Q9NPD5 1-702): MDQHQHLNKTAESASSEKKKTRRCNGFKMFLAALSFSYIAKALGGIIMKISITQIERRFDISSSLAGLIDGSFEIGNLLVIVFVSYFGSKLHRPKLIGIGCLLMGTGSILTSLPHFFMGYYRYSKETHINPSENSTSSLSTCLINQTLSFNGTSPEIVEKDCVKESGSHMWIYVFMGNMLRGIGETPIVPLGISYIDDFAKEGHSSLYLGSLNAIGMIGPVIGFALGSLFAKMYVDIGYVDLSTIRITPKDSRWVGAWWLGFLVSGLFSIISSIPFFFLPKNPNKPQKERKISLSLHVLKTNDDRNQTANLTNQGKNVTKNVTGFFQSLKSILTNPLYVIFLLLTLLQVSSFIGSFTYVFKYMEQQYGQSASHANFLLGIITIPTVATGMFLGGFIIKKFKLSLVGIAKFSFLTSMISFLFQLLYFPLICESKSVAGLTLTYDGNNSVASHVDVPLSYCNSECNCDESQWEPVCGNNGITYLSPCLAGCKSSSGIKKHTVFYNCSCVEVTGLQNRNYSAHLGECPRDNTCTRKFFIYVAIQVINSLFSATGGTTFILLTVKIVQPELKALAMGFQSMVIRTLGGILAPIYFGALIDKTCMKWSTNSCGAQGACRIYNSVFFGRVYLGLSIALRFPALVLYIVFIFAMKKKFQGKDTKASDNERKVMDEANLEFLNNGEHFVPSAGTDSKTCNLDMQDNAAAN
Assay: Inhibition of hOATP1B3-mediated 3H-BSP uptake, stably transfected 293 cells
Format: cell-based
Details: substrate 0.02 μM 3H-BSP, median (95% CI)
Excerpt: We characterized the inhibitory potential of iohexol on major drug transporters recommended by regulatory agencies, which were previously assessed in a clinical transporter phenotyping cocktail study. These transporters include hOAT1, hOAT3, hOCT1, hOCT2, hMATE1, hMATE2K, human organic anion transporter polypeptides (hOATP)1B1, hOATP1B3, and human multidrug resistance protein (hMDR)1. Additionally, we investigated whether iohexol is a substrate for any of the renal transporters among these, including hOAT1/3, hOCT1/2, and hMATE1/2K. Cell‐based uptake assays were used to assess the activities of hOAT1/3, hOCT1/2, hMATE1/2K, and hOATP1B1/1B3. Inside‐out membrane vesicle uptake assays were used to evaluate the activity of hMDR1.
To determine the maximal inhibitory potential of iohexol, intracellular accumulation of a standard substrate was measured with and without the clinically relevant highest concentrations of iohexol. Control inhibitors were tested in each experiment.
In all subsequent in vitro studies, control experiments were conducted to validate the results. […] Each condition, including cells or vesicles with the transporter and their respective controls, was analyzed in at least three replicates. […]
Uptake assays were carried out with stably transfected 293 cells expressing hOATP1B1 or hOATP1B3, as well as cells containing an empty vector, using the method described by Hsin CH, et al..^1 For the inhibition assays, cells were incubated with the radiolabeled standard substrates specific to each transporter: 0.01 μM ^3H-estrone sulfate for hOATP1B1, and 0.02 μM ^3H-bromosulphophthalein (BSP) for hOATP1B3. […] The accumulation of radio-labelled probe substrates (^3H) in the cell lysate is determined using a Tri-Carb 2810 liquid scintillation counter (PerkinElmer, Waltham, MA, USA) as described previously.^1 Cellular protein amount was determined in parallel from 6 paired wells per cell line and experimental day, using the Bradford method.^2 The 1X lysis buffer (5X lysis buffer from Promega, diluted 1+4 [v/v] in ddH2O) was used as the lysis buffer. […]

- Inhibitory effect (% reduction of specific activity) (20 mM iohexol): no notable inhibitory effects
- inhibition at 7 min, 2 mM (human, stably transfected 293 cells expressing hOATP1B3, probe 3H-bromosulphophthalein (BSP), 2 mM iohexol, read-out: Inhibitory effect (% reduction of specific activity)): -2.5%
- inhibition at 7 min, 20 mM (human, stably transfected 293 cells expressing hOATP1B3, probe 3H-bromosulphophthalein (BSP), 20 mM iohexol, read-out: Inhibitory effect (% reduction of specific activity)): -21%
Compound: CC(=O)N(CC(O)CO)c1c(I)c(C(=O)NCC(O)CO)c(I)c(C(=O)NCC(O)CO)c1I (stereo not drawn) [iohexol]
